Assay results published in patent US20240246946A1, “MODULATORS OF TREX1” (Constellation Pharmaceuticals, Inc., priority 2021, published 2024).

Tests used:
full length human TREX1 = molecular target: T1, full length human TREX1 (Homo sapiens, UniProt Q9NSU2); test: hTREX1 Biochemical Assay (fluorescence, dsDNA substrate degradation); details: biochemical, read-out: hTREX1 IC50
T1 construct: N-terminally His-Tev tagged full length human TREX1; made in house; host or cells: E. coli
T1 sequence (Q9NSU2 1-314): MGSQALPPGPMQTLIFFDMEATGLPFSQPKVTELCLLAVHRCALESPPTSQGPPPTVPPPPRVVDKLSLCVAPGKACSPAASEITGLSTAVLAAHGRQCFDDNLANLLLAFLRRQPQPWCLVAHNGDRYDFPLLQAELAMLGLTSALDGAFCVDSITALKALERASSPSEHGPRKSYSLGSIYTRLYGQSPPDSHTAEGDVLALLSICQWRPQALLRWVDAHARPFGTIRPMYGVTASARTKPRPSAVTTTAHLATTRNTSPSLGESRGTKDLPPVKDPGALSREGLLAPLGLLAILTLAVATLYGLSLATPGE
Outline: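 Cleavage of 60 nM TEX615/quencher-labelled dsDNA in pH 7.4 Tris buffer with 5 mM MgCl2, 1.0% DMSO, run 18 hours at 25° C, EDTA-quenched; fluorescence read-out.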

[1] = molecular target: T2, human TREX2 (residues M44-A279) (Homo sapiens, UniProt Q9BQ50); test: hTREX2 Biochemical Assay (fluorescence, dsDNA substrate degradation); details: biochemical selectivity for hTREX1 vs hTREX2
T2 construct: human TREX2 (residues M44-A279, expressed in E. coli); made in house; host or cells: E. coli
T2 sequence (Q9BQ50 44-279 isoform Q9BQ50-1): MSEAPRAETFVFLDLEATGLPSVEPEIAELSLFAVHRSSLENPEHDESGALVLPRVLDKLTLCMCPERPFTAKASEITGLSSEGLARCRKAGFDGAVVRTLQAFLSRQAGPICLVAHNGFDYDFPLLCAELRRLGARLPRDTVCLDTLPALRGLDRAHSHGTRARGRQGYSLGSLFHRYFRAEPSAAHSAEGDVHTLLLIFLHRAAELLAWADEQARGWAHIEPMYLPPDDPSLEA
Outline: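 N-His-Tev E. coli enzyme (50 pM) pre-incubated with compound 4 h at 25 °C, then 60 nM TEX615/quencher dsDNA added; 18 h at 25 °C, pH 7.4 Tris buffer with 5 mM MgCl2, 1.0% DMSO. EDTA-quenched; fluorescence 570 ex/615 em from liberated fluorophore, 10-point dose-response.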

full length mouse TREX1 = molecular target: T3, full length mouse TREX1 (Mus musculus, UniProt Q91XB0); test: mTREX1 Biochemical Assay (fluorescence, dsDNA substrate degradation); details: biochemical, read-out: mTREX1 IC50
T3 construct: N-terminally His-Tev tagged full length mouse TREX1; made in house; host or cells: E. coli
T3 sequence (Q91XB0 1-314): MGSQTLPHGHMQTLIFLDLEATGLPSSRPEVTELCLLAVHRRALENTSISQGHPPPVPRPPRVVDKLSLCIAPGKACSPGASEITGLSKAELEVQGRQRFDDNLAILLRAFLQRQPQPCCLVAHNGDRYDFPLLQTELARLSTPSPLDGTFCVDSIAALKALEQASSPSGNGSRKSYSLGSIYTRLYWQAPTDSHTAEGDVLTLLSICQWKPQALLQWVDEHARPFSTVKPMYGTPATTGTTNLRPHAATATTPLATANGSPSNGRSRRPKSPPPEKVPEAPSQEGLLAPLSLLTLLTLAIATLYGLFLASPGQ
Outline: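 Reaction run 18 h at 25° C. with 60 nM TEX615/quencher-labelled dsDNA and 6 pM mouse TREX1 in Tris buffer (pH 7.4, 5 mM MgCl2, 1.0% DMSO), enzyme having sat 4 h with compound across 10 concentrations. EDTA quench; substrate degradation measured as fluorescence increase.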

| SMILES | IC50 (full length human TREX1) | hTREX1 vs hTREX2 selectivity [1] | IC50 (full length mouse TREX1) |
| --- | --- | --- | --- |
| CC(C)c1cnn(C(c2ccccc2Cl)C(C)c2nc(C(=O)Nc3cnoc3)c(O)c(=O)n2C)c1 (single isomer, unassigned) [Example 135 D1E2] | > 10 nM | A (A = <25 fold selective for hTREX1) | > 10 nM |
| Cc1cc(C)n(C(c2ccccc2Cl)C(C)c2nc(C(=O)Nc3cnoc3)c(O)c(=O)n2C)n1 (single isomer, unassigned) [Example 136 D1E1] | > 10 nM | A (A = <25 fold selective for hTREX1) | > 10 nM |
| Cc1cc(C)n(C(c2ccccc2C#N)C(C)c2nc(C(=O)Nc3cnoc3)c(O)c(=O)n2C)n1 (single isomer, unassigned) [Example 137 D1E2] | > 10 nM | A (A = <25 fold selective for hTREX1) | > 10 nM |
| CC(c1nc(C(=O)Nc2cnoc2)c(O)c(=O)n1C)C(c1ccccc1Cl)n1cc(C(F)(F)F)cn1 (single isomer, unassigned) [Example 139 D1E2] | > 10 nM | A (A = <25 fold selective for hTREX1) | > 10 nM |
| CC(c1nc(C(=O)Nc2cnoc2)c(O)c(=O)n1C)C(c1ccccc1Cl)n1cc2ccccc2n1 (single isomer, unassigned) [Example 141 D1E2] | > 10 nM | A (A = <25 fold selective for hTREX1) | > 10 nM |
| Cc1cn(C(c2ccccc2Cl)C(C)c2nc(C(=O)Nc3cnoc3)c(O)c(=O)n2C)cn1 (single isomer, unassigned) [Example 142 D1E1] | > 10 nM | A (A = <25 fold selective for hTREX1) | > 10 nM |
| CC(c1nc(C(=O)Nc2cnoc2)c(O)c(=O)n1C)C(c1ccccc1Cl)n1cnc2ccccc21 (single isomer, unassigned) [Example 143 D1E2] | > 10 nM | A (A = <25 fold selective for hTREX1) | > 10 nM |
| Cc1cnn(C(c2cc(F)ccc2Cl)C(C)c2nc(C(=O)Nc3cnoc3)c(O)c(=O)n2C)c1 (single isomer, unassigned) [Example 144 D1E1] | > 10 nM | A (A = <25 fold selective for hTREX1) | > 10 nM |
| CCn1c(C(C)C(c2cnn(C)c2)c2ccccc2C#N)nc(C(=O)Nc2cnoc2)c(O)c1=O (single isomer, unassigned) [Example 149 D2E2] | > 10 nM | B (B = 25 to 50-fold selective for hTREX1) | > 10 nM |
| CC(c1nc(C(=O)Nc2cnoc2)c(O)c(=O)n1C)C(c1cnn(C(F)(F)F)c1)c1ccccc1C#N (single isomer, unassigned) [Example 151 D1E2] | > 10 nM | A (A = <25 fold selective for hTREX1) | > 10 nM |
| CC(c1nc(C(=O)Nc2cnoc2)c(O)c(=O)n1C)C(c1ccccc1Cl)c1nncn1C (single isomer, unassigned) [Example 152 D2E1] | > 10 nM | B (B = 25 to 50-fold selective for hTREX1) | > 10 nM |
| CC(=O)N(C)c1nn(C)cc1C(c1ccccc1C#N)C(C)c1nc(C(=O)Nc2cnoc2)c(O)c(=O)n1C (single isomer, unassigned) [Example 153 D1E2] | > 10 nM | A (A = <25 fold selective for hTREX1) | > 10 nM |
| CC(c1nc(C(=O)Nc2cnoc2)c(O)c(=O)n1C)C(c1ccccc1)c1cccnc1C#N (single isomer, unassigned) [Example 155 D1E1] | > 10 nM | B (B = 25 to 50-fold selective for hTREX1) | > 10 nM |
| Cc1nnc(C(c2ccccc2Cl)C(C)c2nc(C(=O)Nc3cnoc3)c(O)c(=O)n2C)o1 (single isomer, unassigned) [Example 156 D1E2] | > 10 nM | A (A = <25 fold selective for hTREX1) | > 10 nM |
| Cc1nnc(C(c2ccccc2Cl)C(C)c2nc(C(=O)Nc3cnoc3)c(O)c(=O)n2C)o1 (single isomer, unassigned) [Example 156 D2E1] | > 10 nM | A (A = <25 fold selective for hTREX1) | > 10 nM |
| Cc1nnc(C(c2ccccc2Cl)C(C)c2nc(C(=O)Nc3cnoc3)c(O)c(=O)n2C)o1 (single isomer, unassigned) [Example 156 D2E2] | 1 to 10 nM | B (B = 25 to 50-fold selective for hTREX1) | > 10 nM |

Second part, the compound after the results:

| IC50 (full length human TREX1) | hTREX1 vs hTREX2 selectivity [1] | IC50 (full length mouse TREX1) | SMILES |
| --- | --- | --- | --- |
| > 10 nM | A (A = <25 fold selective for hTREX1) | > 10 nM | CCc1cnn(C(c2ccccc2Cl)C(C)c2nc(C(=O)Nc3cnoc3)c(O)c(=O)n2C)c1 (single isomer, unassigned) [Example 134 D1E2] |
| > 10 nM | A (A = <25 fold selective for hTREX1) | > 10 nM | Cc1ccnn1C(c1ccccc1C#N)C(C)c1nc(C(=O)Nc2cnoc2)c(O)c(=O)n1C (single isomer, unassigned) [Example 138 D1E2] |
| > 10 nM | A (A = <25 fold selective for hTREX1) | > 10 nM | CC(c1nc(C(=O)Nc2cnoc2)c(O)c(=O)n1C)C(c1ccccc1Cl)n1nccc1C#N (single isomer, unassigned) [Example 140 D1E2] |
| > 10 nM | A (A = <25 fold selective for hTREX1) | > 10 nM | Cc1ccnn1C(c1cc(F)ccc1Cl)C(C)c1nc(C(=O)Nc2cnoc2)c(O)c(=O)n1C (single isomer, unassigned) [Example 145 D1E2] |
| > 10 nM | A (A = <25 fold selective for hTREX1) | > 10 nM | Cc1ccn(C(c2cc(F)ccc2Cl)C(C)c2nc(C(=O)Nc3cnoc3)c(O)c(=O)n2C)n1 (single isomer, unassigned) [Example 146 D1E2] |
| > 10 nM | A (A = <25 fold selective for hTREX1) | > 10 nM | CC(c1nc(C(=O)Nc2cnoc2)c(O)c(=O)n1C)C(c1ccccc1Cl)n1nccc1C(N)=O (single isomer, unassigned) [Example 147 D1E2] |
| > 10 nM | A (A = <25 fold selective for hTREX1) | > 10 nM | CCn1c(C(C)C(c2cnn(C)c2)c2ccccc2C#N)nc(C(=O)Nc2cnoc2)c(O)c1=O (single isomer, unassigned) [Example 149 D1E1] |
| > 10 nM | A (A = <25 fold selective for hTREX1) | > 10 nM | CCn1c(C(C)C(c2cnn(C)c2)c2ccccc2C#N)nc(C(=O)Nc2cnoc2)c(O)c1=O (single isomer, unassigned) [Example 149 D2E1] |
| > 10 nM | A (A = <25 fold selective for hTREX1) | > 10 nM | CC(c1nc(C(=O)Nc2cnoc2)c(O)c(=O)n1C)C(c1ccccc1Cl)c1nncn1C (single isomer, unassigned) [Example 152 D1E2] |
| > 10 nM | A (A = <25 fold selective for hTREX1) | > 10 nM | CC(c1nc(C(=O)Nc2cnoc2)c(O)c(=O)n1C)C(c1ccccc1Cl)c1nncn1C (single isomer, unassigned) [Example 152 D2E2] |
| > 10 nM | A (A = <25 fold selective for hTREX1) | > 10 nM | Cc1nn(C)c(C)c1C(c1cc(F)ccc1Cl)C(C)c1nc(C(=O)Nc2cnoc2)c(O)c(=O)n1C (single isomer, unassigned) [Example 154 D1E2] |
| > 10 nM | A (A = <25 fold selective for hTREX1) | > 10 nM | CC(c1nc(C(=O)Nc2cnoc2)c(O)c(=O)n1C)C(c1ccccc1)c1cccnc1C#N (single isomer, unassigned) [Example 155 D2E2] |
